The record followed here is ChEMBL document CHEMBL5725856, “Substituted N-bicyclo-2-aryl-quinolin-4-carboxamides and use thereof” (2018).

In general, IC50 refers to the concentration needed to halve the response being measured.

The target in this experiment is Prostaglandin F2-alpha receptor (Homo sapiens, UniProt P43088). The experiment in a line: In Vitro Test of Inhibition of Human FP Receptor Activity : For the characterization of test substances in respect of FP antagonism, PGF2α-induced calcium flux in FP-expressing CHEM1 cells (Millipore, HTS093C) was used.3000 cells in 25 μl of full medium [DMEM F12, 10% FCS, 1.35 mM sodium pyruvate, 20 mM HEPES, 4 mM GlutaMAX, 2% sodium bicarbonate, 1% Pen/Strep, 1% 100× non-essential amino acids] are sown per well of a 384 multititer plate (from Greiner, TC plate, black with clear base) and incubated at 37° C./5% CO2 for 24 hours. Prior to the measurement, the medium is replaced by 30 μl of Fluo-8 AM loading buffer [calcium-free Tyrode (130 mM NaCl, 5 mM KCl, 20 mM HEPES, 1 mM MgCl2, 4.8 mM NaHCO3, pH 7.4), 2 mM CaCl2, 1× SmartBlock (from CANDOR Bioscience GmbH), 4.5 mM Probenecid, 5 μM Fluo-8 AM, 0.016% Pluronic, 0.04% Brilliant black] and incubated at 37° C./5% CO2 for 30 minutes. The test substance is prepared in DMSO in various concentrations as a dose-response curve (starting concentration 10 mM, dilution factor 3.16) and prediluted 1:50 with calcium-free Tyrode/2 mM CaCl2. 10 μl of the prediluted substance solution are added to the Fluo-8-laden cells and incubated at 37° C./5% CO2 for 10 minutes. […]. The experiment is classed as cell-based.
Prostaglandin F2-alpha receptor, sequence (P43088 whole entry): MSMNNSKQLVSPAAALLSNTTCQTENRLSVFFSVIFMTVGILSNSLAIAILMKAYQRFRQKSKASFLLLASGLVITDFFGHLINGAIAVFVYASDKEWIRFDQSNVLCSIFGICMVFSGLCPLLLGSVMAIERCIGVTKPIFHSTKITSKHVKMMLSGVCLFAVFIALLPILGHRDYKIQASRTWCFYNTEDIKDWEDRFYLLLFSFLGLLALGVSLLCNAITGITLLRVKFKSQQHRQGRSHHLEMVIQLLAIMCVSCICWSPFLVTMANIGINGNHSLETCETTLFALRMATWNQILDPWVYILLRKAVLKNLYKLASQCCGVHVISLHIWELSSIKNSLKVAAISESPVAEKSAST

Take `Cc1c(-c2ccccc2)nc2ccc(C(C)(C)C)cc2c1C(=O)NC12CCC(C(=O)O)(CC1)CC2`: the IC50 was 456 nM.
